Values quoted from earlier work as cited in patent publication US10849951B2, “Use of PHY906 as treatment for inflammatory bowel disease and/or irritable bowel syndrome” (priority 2007, dated 2020).

Experiments:
perineal Crohn's = conditions: human, in vivo
[1] = biological target: bacterial 13-glucuronidase (Escherichia coli, UniProt P05804)
patients = conditions: NCI Common Toxicity criteria

Chain of bacterial 13-glucuronidase (P05804 whole entry): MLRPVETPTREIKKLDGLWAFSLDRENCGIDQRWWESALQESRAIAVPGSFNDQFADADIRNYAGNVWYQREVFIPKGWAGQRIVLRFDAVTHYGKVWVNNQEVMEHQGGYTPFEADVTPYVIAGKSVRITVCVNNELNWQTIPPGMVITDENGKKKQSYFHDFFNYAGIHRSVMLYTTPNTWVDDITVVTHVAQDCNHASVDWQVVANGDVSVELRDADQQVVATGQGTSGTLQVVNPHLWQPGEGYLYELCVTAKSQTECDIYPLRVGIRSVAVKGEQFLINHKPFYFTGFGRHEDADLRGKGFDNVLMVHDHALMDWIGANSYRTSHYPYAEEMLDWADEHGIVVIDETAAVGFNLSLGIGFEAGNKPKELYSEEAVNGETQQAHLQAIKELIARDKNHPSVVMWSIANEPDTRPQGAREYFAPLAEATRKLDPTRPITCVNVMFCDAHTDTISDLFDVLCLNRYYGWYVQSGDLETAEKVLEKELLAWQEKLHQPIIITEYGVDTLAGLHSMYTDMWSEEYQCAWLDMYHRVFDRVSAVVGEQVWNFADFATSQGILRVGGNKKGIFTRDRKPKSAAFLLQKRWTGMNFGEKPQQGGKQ

## Cc1ncc([N+](=O)[O-])n1CCO [Metronidazole, metronidazole]
Perineal Crohn's
  cases in which managing perineal Crohn's is effective: over 50%

## O=c1cc(-c2ccccc2)oc2cc(O)c(O)c(O)c12 [Baicalein]
[1]
  inhibition of bacterial 13-glucuronidase: feedback inhibitor

## CCc1c2c(nc3ccc(OC(=O)N4CCC(N5CCCCC5)CC4)cc13)-c1cc3c(c(=O)n1C2)COC(=O)[C@]3(O)CC [CPT-11, irinotecan]
patients
  patients with diarrhea classified grade 3 (serious) or grade 4 (life-threatening): about 40%
